The source of these data is US20110144056A1, “PYRAZOLE DERIVATIVES USEFUL AS INHIBITORS OF FAAH” (priority 2008, published 2011).

For this test, the target named is T1, FAAH (Homo sapiens, UniProt O00519).
T1 construct: The full length FAAH was subcloned into the mammalian expression vector, pcDEF.neo; expressed in transfected cells; cDNA from Origene
T1 sequence (O00519 1-579): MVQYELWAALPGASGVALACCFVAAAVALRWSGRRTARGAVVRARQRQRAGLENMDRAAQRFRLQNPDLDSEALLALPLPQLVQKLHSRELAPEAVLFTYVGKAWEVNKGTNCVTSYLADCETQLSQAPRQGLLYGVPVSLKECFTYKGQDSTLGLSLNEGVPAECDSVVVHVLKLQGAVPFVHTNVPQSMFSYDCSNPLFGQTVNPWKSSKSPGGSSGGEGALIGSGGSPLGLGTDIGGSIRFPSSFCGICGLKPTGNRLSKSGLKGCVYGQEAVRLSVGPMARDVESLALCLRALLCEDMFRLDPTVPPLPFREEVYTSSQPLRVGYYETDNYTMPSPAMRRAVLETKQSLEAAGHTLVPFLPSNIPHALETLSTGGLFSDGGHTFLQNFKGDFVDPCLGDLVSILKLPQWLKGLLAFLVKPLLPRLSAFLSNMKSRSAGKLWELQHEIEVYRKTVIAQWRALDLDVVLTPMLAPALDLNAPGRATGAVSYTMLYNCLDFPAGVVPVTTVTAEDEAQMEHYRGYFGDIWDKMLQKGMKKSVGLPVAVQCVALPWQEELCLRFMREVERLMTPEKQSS
Put plainly: FAAH enzyme assay, lysate of CHO cells expressing human FAAH. Type of test: biochemical. The conditions noted are these: cell lysate, read-out: FAAH Human Cell Lysate IC50. An excerpt: To assist in assay development stable cell lines for human, murine and rat full length FAAH were developed. Human FAAH cDNA (Accession No: NM_001441.1) was purchased from Origene (Rockville, Md.). The full length FAAH was subcloned into the mammalian expression vector, pcDEF.neo, using XbaI and […] restriction sites and used for stable cell line generation.
CHO cells expressing FAAH were used to prepare either crude cell lysate or microsome fractions. To harvest cells, tissue culture media was decanted, the monolayer washed three times with Ca^++Mg^++ free PBS and cells recovered after 15 min in enzyme free dissociation media (Millipore Corp, Billerica, Mass.). Cells were collected by centrifuging at 2000 rpm for 15 min. and the cell pellet re-suspended with 50 mM HEPES (pH 7.4) containing 1 mM EDTA and the protease inhibitors aprotinin (1 mg/ml) and leupeptin (100 μM). The suspension was sonicated at 4° C. and the cell lysate recovered after centrifuging at 12,000×g (14,600 rpm, SS34 rotor) for 20 min at 4° C. to form a crude pellet of cell debris, nuclei, peroxisomes, lysosomes, and mitochondria; the supernatant or cell lysate was used for FAAH enzyme assay. In some cases, microsomes fractions enriched in FAAH were prepared by centrifuging the cell lysate further at 27,000 rpm (100,000×g) in SW28 rotor for 50 minutes at 4° C. The pellet containing FAAH-enriched microsomes was re-suspend in 50 mM HEPES, (pH 7.4) 1 mM EDTA, and any remaining DNA sheared by passage of material through a 23 gauge needle and aliquots of enzyme were store at −80° C. prior to use.
(American Radiolabeled Chemicals; 1 mCi/ml) with FAAH (Life Sciences (1995), 56, 1999-2005 and Journal of Pharmacology and Experimented Therapeutics (1997), 283, 729-734), Analytical. Biochemistry (2003), 318, 270-5. In addition, routine assays were performed monitoring hydrolysis of arachidonyl-7-amino-4-methylcoumarin amide (AAMCA) by following increase in fluorescence upon release of 7-amino 4-methyl coumarin (λEX=355 nm, (λEM=460 nm). Analytical. Biochemistry (2005). 343, 143-51.
Assays are performed on either cell lysate or microsome fractions prepared as described or in whole cell format employing either the fluorescent substrate AAMCA (Cayman chemical, Ann Arbor, Mich.,) or ^3H-anandmaide ([ETHANOLAMINE-1-3H]American Radiolabeled Chemicals; 1 mCi/ml). The cell lysate or microsome assay is performed in Costar black wall, clear bottom plates by adding FAAH_CHO (whole cell, cell lysate or microsome) in assay buffer (50 mM Phosphate, pH 8.0, 1 mM EDTA, 200 mM KCl, 0.2% glycerol, 0.1% fatty acid free BSA) to each well, followed by either DMSO or compound and allowed to incubate at 22-25° C. for fifteen minutes. AAMCA substrate was used to achieve a final concentration of 1 μM and reaction allowed to proceed at room temperature for 1-3 hours. Fluorescent release as a measure of FAAH activity was monitored by reading the plate in a CytoFluor Multiplate Reader ([…]). Whole cell assay is conducted with cells harvested after rinsing tissue culture flasks three times with Ca^++Mg^++ free PBS, incubating for 10 mm in Enzyme free dissociation media and centrifuging for 5 minutes at 1,000 rpm in table top centrifuge. Cells are resuspended in assay buffer at desired cell number in (4×10^4 cells/assay in 96-well format; 1×10^4 cells/assay in 384-well format) and assayed as described.
Alternatively, assays are performed using anandamide [ethanolamine 1-^3H] (specific activity of 10 Ci/mmol) diluted with cold anandamide to achieve a final assay concentration of 1 μM anandamide (˜50,000 cpm). Enzyme (CHO cell lysate, brain or liver homogenate) is incubated in assay buffer (50 mM Phosphate, pH 8.0, 1 mM EDTA, 200 mM KCl, 0.2% glycerol, 0.1% fatty acid free BSA) with inhibitor at 25° C. for 30 minutes. The reaction was terminated by addition of 2 volumes of chloroform:methanol (1:1) and mixed by vortexing. […]
With `CCNC(=O)c1ccc2cc(-c3nn(C(C)C)cc3Sc3ccc(Cl)cc3)ccc2n1` [Example 368], the IC50 is 24 nM. The same measure for `CCNC(=O)c1ccc2cc(-c3nn(CC4CC4)cc3Sc3ccc(Cl)cc3)ccc2n1` [Example 369]: 1.6 nM. The same measure for `CCNC(=O)c1ccc2cc(-c3nn(CC(C)C)cc3Sc3ccc(Cl)cc3)ccc2n1` [Example 370]: 12 nM.

In the case of `CCOC(=O)c1cnc2cc(-c3nn(CCF)cc3Sc3ccc(Cl)cc3)ccc2c1` [Example 371], the IC50 was 4 nM. As for `OCc1ccc2cc(-c3nn(CCF)cc3Sc3ccc(Cl)cc3)ccc2n1` [Example 372], the IC50 was determined as 30 nM. As for `OC(c1ccc2cc(-c3nn(CCF)cc3Sc3ccc(Cl)cc3)ccc2n1)C(F)(F)F` (centres unmarked) [Example 373], the IC50 amounted to 49 nM. Turning to `OCc1ccc2cc(-c3n[nH]cc3Sc3ccc(Cl)cc3)ccc2n1` [Example 375], the IC50 was found to be 11 nM. With `CCC(=O)N1CCc2cc(-c3n[nH]cc3Sc3ccc(Cl)cc3)ccc2C1` [Example 376] the figure was 168 nM; with `CC(=O)N1CCc2cc(-c3nn(C(C)C)cc3Sc3ccc(Cl)cc3)ccc2C1` [Example 377], 33 nM; with `FC(F)c1ccc2cc(-c3nn(-c4ccccn4)cc3Sc3ccc(Cl)cc3)ccc2n1` [Example 379], 4.9 nM. Regarding `Fc1ccc(-n2cc(Sc3ccc(Cl)cc3)c(-c3ccc4nc(C(F)F)ccc4c3)n2)cc1` [Example 380], the IC50 came to 24 nM. As for `FC(F)c1ccc2cc(-c3nn(C4CC4)cc3Sc3ccc(Cl)cc3)ccc2n1` [Example 381], the IC50 stood at 9.5 nM. For the compound `CCn1cc(-n2cc(Sc3ccc(Cl)cc3)c(-c3ccc4nc(C(F)F)ccc4c3)n2)cn1` [Example 382], the IC50 turned out to be 4.9 nM. As to `FC(F)c1ccc2cc(-c3nn(C4CC4)cc3Sc3ccc(Cl)cn3)ccc2n1` [Example 383], the IC50 stood at 29 nM. For the compound `Cc1ccc2cc(-c3nn(C4CC4)cc3Sc3ccc(Cl)cc3)ccc2n1` [Example 384], the IC50 is 18 nM. Turning to `Cc1ccc2cc(-c3n[nH]cc3Sc3ccc(Cl)cc3)ccc2n1` [Example 385], the IC50 is 192 nM. The same measure for `Clc1ccc(Sc2cn(C3CC3)nc2-c2ccc3nc(Cl)ccc3c2)cc1` [Example 386]: 94 nM; for `CCOC(=O)c1cnc2cc(-c3n[nH]cc3Sc3ccc(Cl)cc3)cnc2c1` [Example 387]: 14 nM. The same measure for `CCC(=O)N1CCc2cc(-c3nn(CCF)cc3Sc3ccc(Cl)cc3)ccc2C1` [Example 390]: 62 nM; for `OCc1cnc2cc(-c3nn(CCF)cc3Sc3ccc(Cl)cc3)ccc2c1` [Example 391]: 24 nM; for `CCNC(=O)c1cnc2cc(-c3nn(CCF)cc3Sc3ccc(Cl)cc3)cnc2c1` [Example 392]: 47 nM. In the case of `CCOC(=O)c1cnc2cc(-c3nn(CCF)cc3Sc3ccc(Cl)cc3)cnc2c1` [Example 393], the IC50 is 16 nM. With `CCNC(=O)c1cnc2cc(-c3nn(CCF)cc3Sc3ccc(Cl)cc3)ccc2c1` [Example 394], the IC50 amounted to 15 nM. With `NC(=O)c1ccc2cc(-c3nn(C4CC4)cc3Sc3ccc(Cl)cn3)ccc2n1` [Example 396] the figure was 14.8 nM.

For the compound `N#Cc1ccc2cc(-c3nn(C4CC4)cc3Sc3ccc(Cl)cn3)ccc2n1` [Example 397], the IC50 worked out at 172 nM. `CCOC(=O)c1ccc2cc(-c3n[nH]cc3Sc3ccc(Cl)cn3)ccc2n1` [Example 398]: the IC50 is 0.77 nM. Regarding `CCOC(=O)c1ccc2cc(-c3nn(C4CC4)cc3Sc3ccc(Cl)cn3)ccc2n1` [Example 399], the IC50 worked out at 11 nM.

For `CN(C)C(=O)c1ccc2cc(-c3nn(C4CC4)cc3Sc3ccc(Cl)cc3)ccc2n1` [Example 400], the IC50 came out at 39 nM. The same measure for `CN(C)C(=O)c1ccc2cc(-c3nn(C4CC4)cc3Sc3ncc(Cl)cn3)ccc2n1` [Example 401]: 291 nM.

For orientation: IC50 means the concentration needed to halve the response being measured.
